Assay results reported in US20040230257A1, “Enhanced bioavailability of nutrients, pharmaceutical agents, and other bioactive substances through laser resonant homogenization or modification of molecular shape or crystalline form” (priority 2003, published 2004).
Where a name gives a salt, the structure may show the parent alone.

Key:
[1] = X-ray crystallography of control vs laser treated L-arginine hydrochloride; format: physicochemical; settings: crystallized from deionized water by slow evaporation at room temperature
Description: Each sample was dissolved in 0.50 grams of deionized water. The control sample was crystallized by slow evaporation at room temperature over 24 hours. The average room temperature was approximately 26 degrees Centigrade. The average ambient humidity was approximately 33%.
The treated sample was crystallized under the same conditions with the addition of pulsed modulated energy at 532 nm as described for Arg #1 in Example 2 above. The beam was passed through the center of the meniscus of solution in the container.
Crystals from the control and treated samples were selected for further study. Selected crystals all had dimensions of approximately 0.5 mm on a side or less as per the latest standards in the art. The crystal structures were solved using a SMART X-ray diffraction analytical device.

murine macrophages = test: Nitrite (nitric oxide) production by LPS-stimulated murine macrophages given arginine samples; format: cell-based; settings: arginine 120 mcg/ml, LPS 1 ng/ml, 24 hours; for Mean O.D. ± S.D. (optical density at 540 nm, a measure of nitrite concentration): 12 wells
Description: Paracelsian in Ithaca, N.Y., an outside independent lab, performed the following bioassays. Each arginine sample was added to 12 wells of murine macrophages to achieve a concentration of 120 mcg/ml. This is the estimated serum concentration for a 70 Kg person after ingesting a 6-gram serving of arginine, a level observed in numerous clinical studies to be associated with a wide range of physiologic benefits. LPS at 1 ng/ml was added to each well and the cells were incubated for 24 hours. The nitrite concentration in each well's supernatant was determined 24 hours after initiation of treatment as a relative measure of nitric oxide production.
The results are listed in order of relative nitrite production, from greatest to least. The first column is the Arg #, the second the mean plus or minus the standard deviation of the optical density measurement at 540 nm, a measure of nitrite concentration, and the third column the relative production of nitrites expressed in micrograms per ml as determined from optical density.

[2] = X-ray crystallography of control vs laser treated betaine hydrochloride; format: physicochemical; settings: crystals from deionized water
Description: The control and treated betaine hydrochloride samples shown in FIGS. 5A, 5B, 5C, 5D, and 5E were prepared by dissolving 0.6 grams of betaine hydrochloride in 3.0 grams of deionized water and placing the solutions thus prepared in 10×35 mm Petri dishes. Crystallization was done in open containers by slow evaporation at room temperature, a procedure often used in the art of crystallography. Ambient humidity was maintained at or below 30 percent with laboratory dehumidifiers. The treated betaine hydrochloride was irradiated with a 670 nm continuous wave diode laser modulated at 10 MHz with a primary beam power of 2.7 milliwatts that was phase conjugated to 1.35 milliwatts. The 5 mm diameter beam was passed through the middle of fluid meniscus of the treated solution during the entire crystallization process. The control untreated betaine hydrochloride was prepared under the same conditions, except that it was not irradiated with the sparse constructive node generating laser system.
X-ray crystallography was performed using a SMART device made by Siemens. FIGS. 5C and 5D show the intermolecular hydrogen bonding of control versus laser treated betaine hydrochloride, respectively. […]

[3] = Case report: lupus patient on the laser treated methylation formula; format: in vivo, human; settings: before entry, only treatment
Description: The exemplary patient had suffered with relapsing lupus for several years. At the time of entry into the methylation formula studies of EXAMPLE 6, they had experienced a relapse of severe disease for several months.
Their disease was characterized by exquisitely tender blistering and ulcerating lesions on their hands and feet that made it difficult to walk or open a cabinet door without severe pain. Their skin was pallid, they were extremely fatigued with a chronic low energy state, and had suffered extensive hair loss. Their sedimentation rate, a marker for systemic inflammation, was highly elevated at 99, whereas a normal level would be 0-30. […] They declined the use of corticosteroids due to severe treatment side effects during a prior relapse.
The subject was randomized to the placebo control group and for 3 months had no improvement in condition. In the second phase of the study, they were placed on a high dose of the methylation formula of 6 grams of laser treated betaine plus cofactors daily. […]
The subject continued on a lower dose of the laser treated methylation formula for 5 more months, reduced to 1-2 grams of the laser treated betaine plus cofactors. […] At the end of fifth month of lower dose treatment, their sedimentation rate had dropped to the very low normal value of 1, the lowest level ever recorded for them.

[4] = betaine 9 grams daily plus vitamin B12, a liver extract and a creatine precursor; placebo 25%; cited from earlier work
[5] = animal studies; cited from earlier work
[6] = Pilot test: blood SAMe level and knee pain in a subject with osteoarthritis; format: in vivo, human
Description: As a pilot test, a subject with osteoarthritis had blood SAMe levels measured while taking SAMe and then while taking a betaine formulation. […] On this level of SAMe ingestion for three months, their blood SAMe level was 4.9 (the normal range for this lab is 4.2-8.2). At this time, SAMe was discontinued and they started a methylation formula with one gram of laser treated betaine plus laser treated metabolic cofactors. The betaine and metabolic co-factors were in the same ratios as in the double blind clinical study formula to be described below.
In particular, the dual effect of raising SAMe while reducing homocysteine would be expected to preserve and improve the condition of DNA methylation, as SAMe is the exclusive methyl group donor for DNA methylation.

[7] = cited from earlier work

Cl.N=C(N)NCCC[C@H](N)C(=O)O [laser treated L-arginine hydrochloride, L-arginine hydrochloride]
crystal form / water in the crystal lattice [1]: free of water in the crystal lattice

N=C(N)NCCC[C@H](N)C(=O)O [Arg #4, L-arginine]
Mean O.D. ± S.D. (optical density at 540 nm, a measure of nitrite concentration) (murine macrophages): .224 ± .006

C[N+](C)(C)CC(=O)O [treated betaine hydrochloride, betaine hydrochloride]
intermolecular hydrogen bonds per molecule [2]: 3

N=C(N)NCCC[C@H](N)C(=O)O [Arg #1, L-arginine]
nitric oxide byproducts produced compared with control untreated Arg #4 (murine macrophages): statistically significantly less | Mean O.D. ± S.D. (optical density at 540 nm, a measure of nitrite concentration) (murine macrophages): .215 ± .007

C[N+](C)(C)CC(=O)O [untreated betaine hydrochloride, betaine hydrochloride]
intermolecular hydrogen bonds per molecule [2]: 4

N=C(N)NCCC[C@H](N)C(=O)O [Arg #2, L-arginine]
nitric oxide byproducts produced compared with control untreated Arg #4 (murine macrophages): statistically significantly less | Mean O.D. ± S.D. (optical density at 540 nm, a measure of nitrite concentration) (murine macrophages): .219 ± .008

N=C(N)NCCC[C@H](N)C(=O)O [Arg #3, L-arginine]
nitric oxide byproducts produced compared with control untreated Arg #4 (murine macrophages): statistically significantly more | Mean O.D. ± S.D. (optical density at 540 nm, a measure of nitrite concentration) (murine macrophages): .232 ± .010

Cl.N=C(N)NCCC[C@H](N)C(=O)O [control L-arginine hydrochloride, L-arginine hydrochloride]
crystal form / water in the crystal lattice [1]: monohydrated crystal

CCN(CCO)CCCC(C)Nc1ccnc2cc(Cl)ccc12 (stereo not drawn) [Plaquenil]
relief of lupus symptoms [3]: did little to relieve their symptoms

C[N+](C)(C)CC(=O)O [betaine, N,N,N-trimethylglycine]
mortality after one year [4]: no mortality | liver SAMe levels [5]: up to fourfold

C[S+](CC[C@H](N)C(=O)[O-])C[C@H]1O[C@@H](n2cnc3c(N)ncnc32)[C@H](O)[C@@H]1O (stereo partly drawn) [SAMe, S-adenosyl-methionine]
blood SAMe level ([6]; 800 mg of SAMe daily for three months, normal range 4.2-8.2): 4.9 | knee pain ([6]; SAMe 800 mg daily, formula with one gram laser treated betaine for one month): moderate degree of relief | anti-depressant effects ([7]; 1600 mg per day): comparable to tricyclic anti-depressant drugs | time to anti-depressant effects ([7]; tricyclic medications 4-6 weeks): within one week
